Measured values from ChEMBL document CHEMBL1142296, “BACE1 inhibitors: optimization by replacing the P1' residue with non-acidic moiety” (Bioorg Med Chem Lett, 2008).

How the values were obtained:
[1] = molecular target: T1, Beta-secretase 1 (Homo sapiens, UniProt P56817); test: Inhibition of human recombinant BACE1 at 2 uM
[2] = molecular target: T1, Beta-secretase 1; test: Inhibition of human recombinant BACE1 at 0.2 uM
[3] = molecular target: T1, Beta-secretase 1; test: Inhibition of human recombinant BACE1

T1 sequence (P56817 whole entry): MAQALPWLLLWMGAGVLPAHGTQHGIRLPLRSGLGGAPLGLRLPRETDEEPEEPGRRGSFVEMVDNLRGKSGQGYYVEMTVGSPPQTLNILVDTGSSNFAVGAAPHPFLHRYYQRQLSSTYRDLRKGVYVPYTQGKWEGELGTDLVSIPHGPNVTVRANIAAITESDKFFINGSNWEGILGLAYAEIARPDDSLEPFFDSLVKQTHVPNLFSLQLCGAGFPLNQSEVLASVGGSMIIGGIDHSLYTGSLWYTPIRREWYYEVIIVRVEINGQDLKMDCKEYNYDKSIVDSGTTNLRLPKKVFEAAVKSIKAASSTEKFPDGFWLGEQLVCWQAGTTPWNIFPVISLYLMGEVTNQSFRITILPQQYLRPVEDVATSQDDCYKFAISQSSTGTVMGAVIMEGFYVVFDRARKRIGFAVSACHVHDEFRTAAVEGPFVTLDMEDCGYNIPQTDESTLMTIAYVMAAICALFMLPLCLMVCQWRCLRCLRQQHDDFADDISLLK

CC(C)C[C@H](NC(=O)[C@@H](NC(=O)[C@@H](N)CCC(=O)O)C(C)C)C(=O)N[C@@H](Cc1ccccc1)[C@@H](O)C(=O)Nc1ccccc1
inhibition [1]: 53%

CC(C)C[C@H](NC(=O)[C@@H](NC(=O)[C@@H](N)CNC(=O)c1nn[nH]n1)C(C)C)C(=O)N[C@@H](Cc1ccccc1)[C@@H](O)C(=O)Nc1cc([N+](=O)[O-])cc([N+](=O)[O-])c1
inhibition [1]: 96%
inhibition [2]: 75%

CC(C)C[C@H](NC(=O)[C@@H](NC(=O)[C@@H](N)CNC(=O)c1nn[nH]n1)C(C)C)C(=O)N[C@@H](Cc1ccccc1)[C@@H](O)C(=O)Nc1cccc(OC(F)(F)F)c1
inhibition [1]: 93%
inhibition [2]: 72%

CC(C)C[C@H](NC(=O)[C@@H](NC(=O)[C@@H](N)CCC(=O)O)C(C)C)C(=O)N[C@@H](Cc1ccccc1)[C@@H](O)C(=O)Nc1cccc(C(=O)NS(=O)(=O)C(F)(F)F)c1
inhibition [1]: 86%

CC(C)C[C@H](NC(=O)[C@@H](NC(=O)[C@@H](N)CCC(=O)O)C(C)C)C(=O)N[C@@H](Cc1ccccc1)[C@@H](O)C(=O)Nc1cc(C(F)(F)F)cc(C(F)(F)F)c1
inhibition [1]: 74%

CC(C)C[C@H](NC(=O)[C@@H](NC(=O)[C@@H](N)CNC(=O)c1nn[nH]n1)C(C)C)C(=O)N[C@@H](Cc1ccccc1)[C@@H](O)C(=O)Nc1cc(C(F)(F)F)cc(C(F)(F)F)c1
inhibition [1]: 95%
inhibition [2]: 68%

CC(C)C[C@H](NC(=O)[C@@H](NC(=O)[C@@H](N)CCC(=O)O)C(C)C)C(=O)N[C@@H](Cc1ccccc1)[C@@H](O)C(=O)Nc1cc(Cl)c(O)c(Cl)c1
inhibition [1]: 80%

CC(C)C[C@H](NC(=O)[C@@H](NC(=O)[C@@H](N)CNC(=O)c1nnn[nH]1)C(C)C)C(=O)N[C@@H](Cc1ccccc1)[C@@H](O)C(=O)NS(=O)(=O)C(F)(F)F
IC50 [3]: 29.9 nM

CC(C)C[C@H](NC(=O)[C@@H](NC(=O)[C@@H](N)CCC(=O)O)C(C)C)C(=O)N[C@@H](Cc1ccccc1)[C@@H](O)C(=O)Nc1cc([N+](=O)[O-])cc([N+](=O)[O-])c1
inhibition [1]: 60%

CC(C)C[C@H](NC(=O)[C@@H](NC(=O)[C@@H](N)CCC(=O)O)C(C)C)C(=O)N[C@@H](Cc1ccccc1)[C@@H](O)C(=O)Nc1cc(Cl)cc(Cl)c1
inhibition [1]: 78%

Cc1nc(NC(=O)[C@H](O)[C@H](Cc2ccccc2)NC(=O)[C@H](CC(C)C)NC(=O)[C@@H](NC(=O)[C@@H](N)CCC(=O)O)C(C)C)sc1C(=O)O
inhibition [1]: 94%

CCOC(=O)c1sc(NC(=O)[C@H](O)[C@H](Cc2ccccc2)NC(=O)[C@H](CC(C)C)NC(=O)[C@@H](NC(=O)[C@@H](N)CCC(=O)O)C(C)C)nc1C
inhibition [1]: 66%

CC(C)C[C@H](NC(=O)[C@@H](NC(=O)[C@@H](N)CNC(=O)c1nn[nH]n1)C(C)C)C(=O)N[C@@H](Cc1ccccc1)[C@@H](O)C(=O)Nc1cc(Br)cc(C(F)(F)F)c1
inhibition [1]: 92%
inhibition [2]: 57%

CC(C)C[C@H](NC(=O)[C@@H](NC(=O)[C@@H](N)CNC(=O)c1nn[nH]n1)C(C)C)C(=O)N[C@@H](Cc1ccccc1)[C@@H](O)C(=O)NS(=O)(=O)C(F)(F)F
inhibition [1]: 98%
inhibition [2]: 81%

CC(C)C[C@H](NC(=O)[C@@H](NC(=O)[C@@H](N)CCC(=O)O)C(C)C)C(=O)N[C@@H](Cc1ccccc1)[C@@H](O)C(=O)Nc1cccc(C(=O)C(F)(F)F)c1
inhibition [1]: 51%

CC(C)C[C@H](NC(=O)[C@@H](NC(=O)[C@@H](N)CCC(=O)O)C(C)C)C(=O)N[C@@H](Cc1ccccc1)[C@@H](O)C(=O)Nc1cccc(O)c1
inhibition [1]: 54%

CC(C)C[C@H](NC(=O)[C@@H](NC(=O)[C@@H](N)CCC(=O)O)C(C)C)C(=O)N[C@@H](Cc1ccccc1)[C@@H](O)C(=O)Nc1cccc([N+](=O)[O-])c1
inhibition [1]: 71%

CC(C)C[C@H](NC(=O)[C@@H](NC(=O)[C@@H](N)CCC(=O)O)C(C)C)C(=O)N[C@@H](Cc1ccccc1)[C@@H](O)C(=O)Nc1ccccc1O
inhibition [1]: 60%

CC(C)C[C@H](NC(=O)[C@@H](NC(=O)[C@@H](N)CNC(=O)c1nnn[nH]1)C(C)C)C(=O)N[C@@H](Cc1ccccc1)[C@@H](O)C(=O)Nc1cc(Cl)cc(Cl)c1
IC50 [3]: 14 nM

CC(C)C[C@H](NC(=O)[C@@H](NC(=O)[C@@H](N)CNC(=O)c1nn[nH]n1)C(C)C)C(=O)N[C@@H](Cc1ccccc1)[C@@H](O)C(=O)Nc1cc(Cl)cc(Cl)c1
inhibition [1]: 99%
inhibition [2]: 84%

CC(C)C[C@H](NC(=O)[C@@H](NC(=O)[C@@H](N)CNC(=O)c1nn[nH]n1)C(C)C)C(=O)N[C@@H](Cc1ccccc1)[C@@H](O)C(=O)Nc1cccc([N+](=O)[O-])c1
inhibition [1]: 96%
inhibition [2]: 70%
